From patent US7816397B2, “Phenylcarboxylic acid derivatives and use thereof for the treatment of diabetes” (Merck Patent GmbH, priority 2004, dated 2010)

Key:
INS-1 cells = experiment: Insulin secretion test on INS-1 cells; type: cell-based; settings: Rattus norvegicus, INS1, test compound concentration 10^−5 M, read-out: INS-1 Test concentration 10^−5 M % (Sec INS, percentage of insulin secretion)
Source text: Insulin Secretion Test on INS-1 Cells
According to the method described in Endocrinology, 1992 vol. 130 (1) pp. 167-178
Sec INS corresponds to the percentage of insulin secretion.
C corresponds to the concentration of test compound according to the invention.

n0-STZ/sucrose rats = experiment: In vivo oral glucose tolerance test (OGTT) after daily treatment for 7 days; set-up: species or system Rats Wistar; settings: 100 mg/kg/day for 7 days
Procedure: To evaluate the effect of 2-{2-[4-(4-chlorobenzenesulfonylamino)phenyl]-ethyl}benzoic acid (compound 522) on the glucose tolerance of n0-STZ/sucrose rats, after a daily treatment for 7 days.
Rats Wistar (origin: Charles River, France), which received an injection of streptozotocin (100 mg/kg i.v.) on the day of birth. On their arrival at the Research Centre, at seven weeks old:
• 9 rats were placed on a standard diet (A04, SAFE). • 19 rats were placed on a sucrose-rich diet (58% sucrose, SAFE).
After 2 months on the diet, the rats on the sucrose diet were divided randomly into 2 subgroups (control diabetic, treated diabetic).
The three groups were then treated daily for 7 days, with excipient (0.5% methylcellulose solution) for the control group (healthy animals) and the diabetic control group, or with product (compound 522, 100 mg/kg/day) for the third group.
Glucose Tolerance Test (OGTT):
After treatment for 7 days, the animals were fasted for 3 hours before the start of the test. Samples were taken from the tail of the conscious rats. The first blood sample was taken 10 minutes before the administration of glucose (2 g/kgbody weight/oral route). Blood was then taken 10, 20, 30, 45, 60, 90 and 120 minutes after the administration of glucose.
The glucose tolerance was evaluated by means of the ΔAUC glc, which represents the cumulative increase in glycaemia above the basal value over the 120 minutes of the test.
The insulin response to glucose was estimated by means of the ΔAUC Ins, which represents the cumulative increase in insulinaemia above the basal value over the 120 minutes of the test.

[1] = tested on: isolated islets of Langerhans; experiment: Insulin secretion test on islets isolated from rats (static incubation, stimulation factor); type: cell-based; settings: 90 minutes incubation, glucose 2.8 mM or 8 mM (not given), stimulates if factor >= 130%; for Isolated islets 10^−5 M (stimulation factor of insulin secretion): compound 10^−5 M; for Isolated islets 10^−7 M (stimulation factor of insulin secretion): compound 10^−7 M
Procedure: Insulin Secretion Test on Islets Isolated from Rats
The effect of the compounds on insulin secretion as a function of the glucose concentration was tested, in vitro, in isolated islets of Langerhans in static incubation.
The islets Langerhans obtained by digestion of exocrine pancreatic tissue with collagenase, followed by purification on a Ficoll gradient, are incubated for 90 minutes in the presence of two concentrations of glucose (2.8 mM or 8 mM), in the presence or absence of the chemical compound. The insulin secretion is assayed by RIA in the incubation medium.
The potential of the various chemical compounds to stimulate insulin secretion is estimated by calculating the stimulation factor*.
A compound stimulates insulin secretion if this factor is greater than or equal to 130% for a given dose of glucose.
G=insulin secretion (pmol/min. islet) in the presence of glucose alone
G+P=insulin secretion (pmol/min. islet) in the presence of the same concentration of glucose and of the test compound.

| Compound | activity at 10 µM (INS-1 cells) | other results |
| --- | --- | --- |
| N#Cc1ccccc1S(=O)(=O)Nc1ccccc1CCc1ccccc1C(=O)O [Compound 655] | 147% |  |
| Cc1ccc(S(=O)(=O)Nc2ccccc2CCCCCc2ccccc2C(=O)O)c(C)c1 [Compound 151] | 190% |  |
| O=C(O)c1ccccc1CCc1ccccc1NS(=O)(=O)c1ccc(S(=O)(=O)c2ccccc2)s1 [Compound 650] | 139% |  |
| O=C(O)c1ccccc1CCCc1ccccc1NS(=O)(=O)c1ccc2ccccc2c1 [Compound 117] | 175% |  |
| CCCCc1ccc(S(=O)(=O)Nc2ccccc2CCc2ccccc2C(=O)O)cc1 [Compound 642] | 140% |  |
| CN(C)c1cccc2c(S(=O)(=O)Nc3ccccc3CCCCCc3ccccc3C(=O)O)cccc12 [Compound 159] | 269% |  |
| O=C(O)c1ccccc1CCc1ccc(NS(=O)(=O)c2ccc(Cl)cc2)cc1 [Compound 522, 2-{2-[4-(4-chlorobenzenesulfonylamino)phenyl]-ethyl}benzoic acid] |  | ΔAUC insulin, treated versus diabetic controls (in words) (n0-STZ/sucrose rats; OGTT 120 minutes): unchanged; ΔAUC glucose down by, treated rats compared with the diabetic controls (n0-STZ/sucrose rats; OGTT glucose 2 g/kg oral, 120 minutes, significant p<0.05): 21%; ΔAUC insulin (cumulative increase in insulinaemia above the basal value) (n0-STZ/sucrose rats; treated rats, OGTT 120 minutes, diabetic controls 11417+/−1440): 14494 ± 665 pmol·min; ΔAUC glucose (cumulative increase in glycaemia above the basal value) (n0-STZ/sucrose rats; treated rats, OGTT 120 minutes, diabetic controls 33306+/−1403): 26438 ± 2255 mg·min/dL |
| CCS(=O)(=O)Nc1ccccc1CCCCCc1ccccc1C(=O)O [Compound 157] | 203% |  |
| Cc1ccc(S(=O)(=O)Nc2ccccc2CCCc2ccccc2C(=O)O)c(C)c1 [Compound 109] | 162% |  |
| Cc1cc(C)c(S(=O)(=O)Nc2ccccc2CCCc2ccccc2C(=O)O)c(C)c1 [Compound 121] | 184% |  |
| CC(C)c1ccc(S(=O)(=O)Nc2ccccc2CCCCCc2ccccc2C(=O)O)cc1 [Compound 164] | 180% |  |
| Cc1ccc(S(=O)(=O)Nc2ccccc2CCCCCc2ccccc2C(=O)O)cc1 [Compound 144] | 191% |  |
| O=C(O)c1ccccc1CCc1ccccc1NS(=O)(=O)/C=C/c1ccccc1 [Compound 639] | 144% |  |
| COc1cc(C)c(S(=O)(=O)Nc2ccccc2CCCCCc2ccccc2C(=O)O)c(C)c1C [Compound 158] | 182% | Isolated islets 10^−5 M (stimulation factor of insulin secretion) [1]: +166%; Isolated islets 10^−7 M (stimulation factor of insulin secretion) [1]: +135% |
| CCC(C)(C)c1ccc(S(=O)(=O)Nc2ccccc2CCc2ccccc2C(=O)O)cc1 [Compound 654] | 148% |  |
| O=C(O)c1ccccc1CCCCCc1ccccc1NS(=O)(=O)c1cccc2cccnc12 [Compound 168] | 256% | Isolated islets 10^−5 M (stimulation factor of insulin secretion) [1]: +236%; Isolated islets 10^−7 M (stimulation factor of insulin secretion) [1]: +169% |
| O=C(O)c1ccccc1CCCCCc1ccccc1NS(=O)(=O)c1ccccc1F [Compound 152] | 202% |  |
